Patent US20040009485A1, “Cellular arrays for the identification of altered gene expression” (priority 2002, published 2004)

Key:
[1] = system: uhpT-luxCDABE gene fusion (E. coli strain DPD3228); test: Verification of uhpT-lux upregulation by limonene; assay type: cell-based; details: late response, maximal at highest conc, also detected at 40% or 20% of saturating amounts (FIG. 10)
Procedure: E. coli strain DPD3228 is identical to lux-a.pk034.b9 the strain containing the uhpT-luxCDABE gene fusion. This strain was grown overnight at 37° C. in LB medium containing 100 μg/ml ampicillin and diluted the following day into LB medium and grown to log phase at 37° C. 20 μl aliquots of this culture were added to 80 μl of LB medium saturated with limonene, to 80 μl of a series of two fold dilutions into LB medium of LB saturated with limonene, and to 80 μl of LB medium. Light production was measured in a Luminoskan Ascent (Labsystems) microplate luminometer at 37° C. […] Similar to the initial LuxArray observations, a late response to the presence of limonene was observed. This response was maximal at the highest concentration of limonene tested, but was also detected when limonene was present at 40% or 20% of saturating amounts in LB medium.

luxCDABE gene fusions = test: Retest of nalidixic acid upregulated gene fusions in liquid medium; assay type: cell-based, E. coli; details: for Liquid expt. NA/LB t = 2 hr: at conc of max induction; for # of conc with >1.5 fold up: seven conc 80-1.2 μg/ml
Procedure: Several concentrations of nalidixic acid were used because the differences in responses between liquid and solid growth were not known. Light production of 100 μl duplicate cultures at 37° C. was quantitated using a 96 well plate luminometer (Luminoskan Ascent, Labsystems). […] It should be noted that the liquid medium tests were not corrected for growth inhibition by nalidixic acid.

[2] = 1pxA 1pxB rnhB dnaE fusion (lux-a.pk061.c3)
[3] = dinG ybiB fusion (lux-a.pk0024.f5)
[4] = frvR frvX frvB frvA fusion (lux-a.pk046.e6)
[5] = yfhJ fdx hscA yfhE fusion (lux-a.pk0019.g2)

C=C(C)[C@H]1CC=C(C)CC1 [limonene]
upregulation of bioluminescence of uhpT-luxCDABE strain [1]: upregulation of bioluminescence from this strain by limonene was confirmed

CCn1cc(C(=O)O)c(=O)c2ccc(C)nc21 [Nalidixic acid, nalidixic acid]
Nal conc of max induction in liquid (luxCDABE gene fusions; [2]): 2.5 µg/mL
Liquid expt. NA/LB t = 2 hr (luxCDABE gene fusions; [2]): 1.82
# of conc with >1.5 fold up (luxCDABE gene fusions; [2]): 3
Nal conc of max induction in liquid (luxCDABE gene fusions; b1728 fusion (lux-a.pk033.c5)): 5 µg/mL
Liquid expt. NA/LB t = 2 hr (luxCDABE gene fusions; b1728 fusion (lux-a.pk033.c5)): 3.67
# of conc with >1.5 fold up (luxCDABE gene fusions; b1728 fusion (lux-a.pk033.c5)): 7
Nal conc of max induction in liquid (luxCDABE gene fusions; b1936 fusion (lux-a.pk0019.g1)): 10 µg/mL
Liquid expt. NA/LB t = 2 hr (luxCDABE gene fusions; b1936 fusion (lux-a.pk0019.g1)): 2.34
# of conc with >1.5 fold up (luxCDABE gene fusions; b1936 fusion (lux-a.pk0019.g1)): 6
Nal conc of max induction in liquid (luxCDABE gene fusions; [3]): 5 µg/mL
Liquid expt. NA/LB t = 2 hr (luxCDABE gene fusions; [3]): 4.18
# of conc with >1.5 fold up (luxCDABE gene fusions; [3]): 6
Nal conc of max induction in liquid (luxCDABE gene fusions; dinP fusion (lux-a.pk055.a3)): 5 µg/mL
Liquid expt. NA/LB t = 2 hr (luxCDABE gene fusions; dinP fusion (lux-a.pk055.a3)): 7.60
# of conc with >1.5 fold up (luxCDABE gene fusions; dinP fusion (lux-a.pk055.a3)): 7
Nal conc of max induction in liquid (luxCDABE gene fusions; [4]): 20 µg/mL
Liquid expt. NA/LB t = 2 hr (luxCDABE gene fusions; [4]): 1.46
# of conc with >1.5 fold up (luxCDABE gene fusions; [4]): 0
Nal conc of max induction in liquid (luxCDABE gene fusions; fusion (lux-a.pk0015.d6)): 20 µg/mL
Liquid expt. NA/LB t = 2 hr (luxCDABE gene fusions; fusion (lux-a.pk0015.d6)): 2.71
# of conc with >1.5 fold up (luxCDABE gene fusions; fusion (lux-a.pk0015.d6)): 6
Nal conc of max induction in liquid (luxCDABE gene fusions; oraA fusion (lux-a.pk058.f5)): 10 µg/mL
Liquid expt. NA/LB t = 2 hr (luxCDABE gene fusions; oraA fusion (lux-a.pk058.f5)): 7.19
# of conc with >1.5 fold up (luxCDABE gene fusions; oraA fusion (lux-a.pk058.f5)): 7
Nal conc of max induction in liquid (luxCDABE gene fusions; yaaF fusion (lux-a.pk031.e7)): 2.5 µg/mL
Liquid expt. NA/LB t = 2 hr (luxCDABE gene fusions; yaaF fusion (lux-a.pk031.e7)): 1.85
# of conc with >1.5 fold up (luxCDABE gene fusions; yaaF fusion (lux-a.pk031.e7)): 3
Nal conc of max induction in liquid (luxCDABE gene fusions; [5]): 1.2 µg/mL
Liquid expt. NA/LB t = 2 hr (luxCDABE gene fusions; [5]): 1.02
# of conc with >1.5 fold up (luxCDABE gene fusions; [5]): 0
Nal conc of max induction in liquid (luxCDABE gene fusions; yigN fusion (lux-a.pk046.f11)): 1.2 µg/mL
Liquid expt. NA/LB t = 2 hr (luxCDABE gene fusions; yigN fusion (lux-a.pk046.f11)): 2.54
# of conc with >1.5 fold up (luxCDABE gene fusions; yigN fusion (lux-a.pk046.f11)): 5
